Reference: US20080227870A1, “Carcinogen Solvents in Reducing the Carcinogen Concentration of Cells” (priority 2004, published 2008)

Tested on: human fibroplasts
Assay: Membrane integrity test with a vital dye after exposure to perfluorocarbon liquid
Type: cell-based
Details: biological compatibility statement for the used examples

| SMILES | toxicity to the cell |
| --- | --- |
| FC1(F)C(F)(F)C(F)(F)C2(F)C(F)(F)C(F)(F)C(F)(F)C(F)(F)C2(F)C1(F)F (centres unmarked) [perfluorodecalin] | non-toxic |
| FC(F)(F)C(F)(F)C(F)(F)C(F)(F)C(F)(F)C(F)(F)C(F)(F)C(F)(F)Br [perfluorooctylbromide] | non-toxic |
